Results as given in US20120010161A1, “NOVEL AZAPEPTIDE OR AZAPEPTIDOMIMETIC COMPOUNDS INHIBITING BCRP AND/OR P-GP” (CENTRE NATIONAL DE LA RECHERCHE SCIENTIFIQUE, priority 2009, published 2012).

System: HEK-293 cells
Test: Cytotoxicity on cell growth, MTT test
Assay type: cell-based, human
Settings: 72 hours; for harmlessness / toxicity on HEK-293 cells: cells expressing or not ABCG2
Experimental: The cells are seeded (10 000 cells/well) in 96-well plates and incubated for 24 hours at 37° C. under 5% CO2. Varied concentrations of mitoxantrone (from 0 to 20 μM in a constant final volume of 100 μL) are then added with an equal volume of each of the test compounds. The cells are then left to divide for 72 hours. The cytotoxicity is evaluated colorimetrically with 3-(4,5-dimethylthiazol-2-yl)-2,5-diphenyltetrazolium bromide (MTT).
Increasing concentrations of compound (IA.2) are applied to HEK-293 cells expressing or not expressing ABCG2, and whose residual vitality is evaluated after 72 hours of treatment by an MTT test. The results are illustrated in FIG. 4, in which the cells expressing ABCG2 are represented by empty circles, and those not expressing it by solid circles. […] This absence of toxicity is observed even at a very high concentration such as 40 μM, which corresponds to 40 times the IC50 value.
(§1) Increasing concentrations of compound (IA.1) are applied to HEK-293 cells expressing or not expressing ABCG2, and whose residual vitality is evaluated after 72 hours of treatment by an MTT test. The results are illustrated in FIG. 6, in which the cells expressing ABCG2 are represented by empty circles, and those not expressing it by solid circles.
as §1, with “(IB.1)” for “(IA.1)”, “8,” for “6,”, “circles” for “circles,”
as §1, with “(IB.11)” for “(IA.1)”, “10,” for “6,”

Compound | harmlessness / toxicity on HEK-293 cells | cytotoxicity on HEK-293 cells (up to 40 μM (40 times the IC50), expressing or not ABCG2) | cytotoxicity on HEK-293 cells (at 40 times the IC50) | cytotoxic effect on HEK-293 cells (up to 20 times its IC50, expressing or not ABCG2) | cytotoxic effect on HEK-293 cells (concentration range tested, more than 10 times its IC50, expressing or not ABCG2) | cytotoxic effect on HEK-293 cells (concentration range tested, more than 80 times its IC50, expressing or not ABCG2)
CC(C)(C)OC(=O)NN(C(=O)N[C@@H](CCCCNC(=O)OCc1ccccc1)C(=O)OC(C)(C)C)c1cccc(C(=O)OCc2ccccc2)c1 [IA.2, tert-Butyl ester of (2S)-6-(benzyloxycarbonylamino)-2-[1-(3′-(benzyloxycarbonyl)phenyl)-2-(tert-butoxycarbonyl)hydrazino-carbonylamino]hexanoic acid] | harmlessness | absolutely not cytotoxic |  |  |  | 
CC(C)(C)OC(=O)N[C@H](CNN(CCCCCCNC(=O)OCc1ccccc1)C(=O)OC(C)(C)C)CC(=O)OCc1ccccc1 [IB.1, Benzyl ester of (3S)-4-[2-(6-benzyloxycarbonylaminohexyl)-2-tert-butoxycarbonylhydrazino]-3-tert-butoxycarbonylaminobutyric acid] | harmlessness |  | relative cytotoxicity | no cytotoxic effect |  | 
CC(C)(C)OC(=O)NN(C(=O)N[C@@H](CCCCNC(=O)OCc1ccccc1)C(=O)OC(C)(C)C)c1ccccc1C(=O)OCc1ccccc1 [IA.1, tert-Butyl ester of (2S)-6-(benzyloxycarbonylamino)-2-[1-(2′-(benzyloxycarbonyl)phenyl)-2-(tert-butoxycarbonyl)hydrazino-carbonylamino]hexanoic acid] | harmlessness |  |  |  | no cytotoxic effect | 
CC(C)(C)OC(=O)N[C@H](CNN(CCCCCCNC(=O)OCc1ccccc1)C(=O)OCc1ccccc1)CC(=O)OCc1ccccc1 [IB.11, Benzyl ester of (3S)-4-[2-benzyloxycarbonyl-2-(6-benzyloxycarbonylaminohexyl)hydrazino]-3-tert-butoxycarbonyl-aminobutyric acid] | harmlessness |  |  |  |  | no cytotoxic effect
